This is an account of results in patent US11583507B2, “Direct AMPK activator compounds” (SOCIETE DES PRODUITS NESTLE S.A., priority 2018, dated 2023).

The target in one data set is T1, AMPKα2β1γ1 (211) (Homo sapiens, UniProt P54619+P54646+Q9Y478).
T1 construct: His; made in house; host or cells: bacteria
The data set can be described thus: AMPK in vitro activity assay (HTRF-KinEASE), phosphorylated bacterially-expressed complex. In kind it is biochemical. The note with it: fold activation vs complex without compound; 30 mins incubation. The procedure: (§1) Lusianthridin (CAS 87530-30-1) was isolated from Thunia alba fruit. It was sourced from Analyticon (NP-012362). The plant was purchased through Analyticon's biomaterial supplier in 2003. The country of origin is Nepal. The AMPK heterotrimers were expressed in bacteria and purified through the His-α subunit by nickel purification. AMPK complexes were purified through gel filtration and phosphorylated by incubation with CaMKKβ, and further purified with a final gel filtration purification step. Phosphorylated purified AMPK was incubated with varying concentrations of ligand for 30 mins using substrate and reagents from the HTRF-KinEASE Cisbio assay kit (STK S1 Kit). Phosphorylation of the substrate was measured by incubating with donor and acceptor antibodies for 2 h at room temperature as per the manufacturer's protocol (and Coulerie et al., (2016) PMID: 27792327) and phosphorylated peptide detected by performing HTRF. The 665 nm/620 nm ratio was determined and the results are plotted as fold activation compared to the respective AMPK complex without any compound.

The test system of data set [1] is AMPK substrate, acetyl-CoA carboxylase (ACC). The data set can be described thus: pACC HTRF assay in U2OS Flp-In T-REx cells. In kind it is cell-based. The note with it: 1 h, varying concentrations, dose-dependent. The procedure: U2OS Flp-In T-REx cells were seeded at 100 K in a 96-well plate and left overnight at 37 C in DMEM GlutaMAX (Thermo Fisher Scientific) supplemented with 10% (vol/vol) FBS and 100 U/ml penicillin G, and 100 μg/ml streptomycin. Cells were treated for 1 h with varying concentrations of Lusianthridin in media lacking FBS and then cells were lysed in 50 μl of Cisbio lysis buffer #1 supplemented with blocking solution as per the manufacturer's protocol (Cisbio). Cells were lysed for 30 mins at room temperature before 16 μl of lysate was incubated with 4 μl of the HTRF antibodies (1:40 dilution of the acceptor and donor (p)ACC antibodies, as per the manufacturers protocol). Lysates were incubated overnight with the antibodies before 665 nm/620 nm ratio was determined using a MolecularDevices i3 plate reader (with a HTRF cartridge add-on). For western blot analysis, SDS-sample buffer was added to the remainder of the lysate, denatured at 95 C and then subjected to western blot analysis with phospho-specific and total ACC antibodies (Cell Signalling). Bands were visualized by incubating with Li-Cor secondary antibody and scanned on a Li-Cor Odyssey machine.
Background: In TR-FRET formats the signal depends on donor and acceptor labels being close together.

Data set [2] deals with mouse primary hepatocytes. The data set can be described thus: MTT cytotoxicity assay in mouse primary hepatocytes. The note with it: 1 h at 37 C, Lusianthridin up to 100 μM. (Formazan colour is commonly taken as a measure of viable cells.)
Protocol: Mouse primary hepatocytes were treated with the indicated concentrations of Lusianthridin, Oligomycin and FCCP for 1 h at 37 C. Cell viability was determined by using an MTT assay as per the manufacturer's protocol.
For cytotoxicity experiments in primary hepatocytes, cells were seeded at 20 K cells per well in a 96-well plate overnight in M199 media. Hepatocytes were incubated with varying concentrations of Lusianthridin, Oligomycin or FCCP for 1 h at 37 C. The media was changed for media without phenol red, before performing an MTT assay as per the manufacturer's instructions (Thermo fisher, V131154).
The target of data set [3] is T2, AMPK α2β1γ1 R298G (211 R298G) mutant (Homo sapiens, UniProt P54619+P54646+Q9Y478, R299G).
T2 construct: His; made in house; host or cells: bacteria
As to the kind of experiment: AMPK in vitro activity assay (HTRF-KinEASE), γ1 R298G mutant. In kind it is biochemical. The note with it: mutation in the γ1 AMP binding pocket. The procedure: as §1

The next data set addresses T3, AMPK α2β2γ1 (221) (Homo sapiens, UniProt O43741+P54619+P54646).
T3 construct: His; made in house; host or cells: bacteria
As to the kind of experiment: AMPK in vitro activity assay (HTRF-KinEASE), β2-containing complex. In kind it is biochemical. The note with it: fold activation vs complex without compound. The procedure: as §1

A further data set deals with T4, AMPKα1β1γ1 (111) (Homo sapiens, UniProt P54619+Q13131+Q9Y478).
T4 construct: His; made in house; host or cells: bacteria
The data set can be described thus: AMPK in vitro activity assay (HTRF-KinEASE), α1-containing complex. In kind it is biochemical. Particulars: fold activation vs complex without compound. On the procedure: as §1

Data set [4] relates to AMPK α2β1γ1 ΔCBM mutant (211 ΔCBM). As to the kind of experiment: AMPK in vitro activity assay (HTRF-KinEASE), ΔCBM mutant. In kind it is biochemical. The note with it: carbohydrate-binding module deleted. On the procedure:
as §1

The target in data set [5] is T5, AMPK α2β1γ1 S108A mutant (211 S108A) (Homo sapiens, UniProt P54619+P54646+Q9Y478, S108A).
T5 construct: His; made in house; host or cells: bacteria
The data set can be described thus: AMPK in vitro activity assay (HTRF-KinEASE), β1 S108A mutant. In kind it is biochemical. On the procedure:
as §1

The test system of another data set is primary hepatocytes. The data set can be described thus: Lipogenesis ([1-14C]-acetate incorporation into fatty acids) in primary hepatocytes. In kind it is cell-based, mouse. The note with it: 1 h at 37 C, varying concentrations. On the procedure:
Hepatocyte isolation: The liver was first perfused with 50 ml perfusion buffer (Krebs-Hepes buffer with […] EDTA), followed with 50 ml collagenase A buffer (Krebs-Hepes buffer with 5 mM CaCl2 and 0.5 mg/ml collagenase). […] Hepatocytes were left to attach (3-4 h) and cultured overnight in M199 supplemented with antibiotics and 100 nM dexamethasone. Cells were used for experiments the following morning. For primary hepatocyte isolation see Example 4. For lipogenesis measurements in primary hepatocytes, cells were seeded at 600 K cells per well in a 6-well plate overnight. Media was replaced with fresh M199 media alone for 2 hours prior to incubation with varying concentrations of Lusianthridin for 1 h at 37 C, in the presence of [1-^14C]-acetate. The incorporation of [^14C] into fatty acids was determined in the lower organic layer after separation from the aqueous phase. […] Lipogenesis is controlled by the AMPK substrate ACC, and phosphorylation and inhibition of ACC by AMPK, leads to a decrease in lipogenesis. Lipogenesis was measured in primary hepatocytes by determining the incorporation of ^14C-labelled acetate into fatty acids. Lipogenesis was monitored in the presence or absence of varying concentrations of Lusianthridin for 1 h at 37 C. […] This observation is consistent with its ability to activate AMPK in hepatocytes, which leads to the phosphorylation and inhibition of ACC.

Data set [6] has as its system differentiated C2C12 cells. As to the kind of experiment: Glucose uptake (3H-2-deoxyglucose) into differentiated C2C12 cells. In kind it is cell-based. Particulars: Lusianthridin 100 μM for 4 h at 37 C. The procedure: C2C12 cells were maintained in DMEM GlutaMAX supplemented with 10% (vol/vol) FBS and 100 U/ml penicillin G, and 100 μg/ml streptomycin. C2C12 myoblasts were differentiated into myotubes by 7 days of culture in DMEM GlutaMAX supplemented with 2% (vol/vol) horse serum and antibiotics. Cells were transferred to serum-free media for 24 hours, before equilibrating with bicarbonate-free medium prior to treatment. Cells were treated with Control (DMSO 1% final concentration) or 100 μM Lusianthridin in the presence of ^3H-2-deoxyglucose (in Krebs-Hepes buffer containing sodium pyruvate). Cells were lysed and the quantity of ^3H determined in these samples using a scintillation counter.
Activation of AMPK in muscle cells has been previously shown to increase glucose uptake. […] Differentiated C2C12 cells were treated with either control or 100 μM Lusianthridin for 4 h at 37 C. Glucose uptake was determined by monitoring the uptake of ^3H-2-deoxyglucose into cells. […] This is consistent with the important role of AMPK in mediating glucose uptake in muscle.

T1 sequence (P54646 whole entry): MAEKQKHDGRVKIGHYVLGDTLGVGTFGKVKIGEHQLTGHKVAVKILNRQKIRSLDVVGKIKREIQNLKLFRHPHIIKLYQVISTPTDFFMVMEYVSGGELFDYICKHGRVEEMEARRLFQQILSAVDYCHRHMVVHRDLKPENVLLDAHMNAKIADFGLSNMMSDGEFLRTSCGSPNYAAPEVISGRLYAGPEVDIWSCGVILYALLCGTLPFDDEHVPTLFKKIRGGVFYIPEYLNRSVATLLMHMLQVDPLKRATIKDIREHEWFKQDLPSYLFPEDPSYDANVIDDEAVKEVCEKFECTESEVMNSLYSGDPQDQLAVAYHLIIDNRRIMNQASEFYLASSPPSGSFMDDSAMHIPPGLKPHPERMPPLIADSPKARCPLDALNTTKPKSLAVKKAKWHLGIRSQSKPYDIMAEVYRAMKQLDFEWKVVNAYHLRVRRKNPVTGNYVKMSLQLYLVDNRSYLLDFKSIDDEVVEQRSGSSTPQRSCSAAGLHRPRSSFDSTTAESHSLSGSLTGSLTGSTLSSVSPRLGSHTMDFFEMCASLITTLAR
T1 sequence (Q9Y478 whole entry): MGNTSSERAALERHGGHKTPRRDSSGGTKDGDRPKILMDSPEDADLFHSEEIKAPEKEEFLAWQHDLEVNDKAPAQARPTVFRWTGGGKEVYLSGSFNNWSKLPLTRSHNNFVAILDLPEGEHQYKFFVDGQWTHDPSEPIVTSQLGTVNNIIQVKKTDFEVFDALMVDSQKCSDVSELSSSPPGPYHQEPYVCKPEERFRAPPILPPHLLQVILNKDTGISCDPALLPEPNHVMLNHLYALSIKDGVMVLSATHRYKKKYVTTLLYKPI
T1 sequence (P54619 whole entry): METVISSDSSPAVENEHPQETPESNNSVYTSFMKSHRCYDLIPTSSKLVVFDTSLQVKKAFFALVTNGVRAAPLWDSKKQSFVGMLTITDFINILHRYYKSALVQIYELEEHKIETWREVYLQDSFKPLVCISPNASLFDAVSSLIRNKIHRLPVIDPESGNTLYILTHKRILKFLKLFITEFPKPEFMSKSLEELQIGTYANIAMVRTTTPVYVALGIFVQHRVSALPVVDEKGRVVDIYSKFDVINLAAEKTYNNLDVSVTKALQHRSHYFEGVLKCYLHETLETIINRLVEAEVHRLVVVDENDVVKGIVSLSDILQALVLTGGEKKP
T3 sequence (P54646 whole entry): as the sequence (P54646 whole entry) above
T3 sequence (O43741 whole entry): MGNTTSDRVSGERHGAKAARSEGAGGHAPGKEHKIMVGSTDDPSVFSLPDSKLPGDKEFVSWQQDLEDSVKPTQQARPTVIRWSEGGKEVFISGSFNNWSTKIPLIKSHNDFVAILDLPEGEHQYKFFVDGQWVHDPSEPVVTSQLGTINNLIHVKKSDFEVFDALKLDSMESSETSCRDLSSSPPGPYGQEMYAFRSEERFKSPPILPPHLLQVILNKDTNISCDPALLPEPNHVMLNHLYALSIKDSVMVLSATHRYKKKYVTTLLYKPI
T3 sequence (P54619 whole entry): as the sequence (P54619 whole entry) above
T5 sequence (P54646 whole entry): as the sequence (P54646 whole entry) above
T5 sequence (Q9Y478 whole entry S108A): as the sequence (Q9Y478 whole entry) above, with S108A counted along it
T5 sequence (P54619 whole entry): as the sequence (P54619 whole entry) above
T2 sequence (P54646 whole entry): as the sequence (P54646 whole entry) above
T2 sequence (Q9Y478 whole entry): as the sequence (Q9Y478 whole entry) above
T2 sequence (P54619 whole entry R299G): as the sequence (P54619 whole entry) above, with R299G counted along it
T4 sequence (Q13131 whole entry): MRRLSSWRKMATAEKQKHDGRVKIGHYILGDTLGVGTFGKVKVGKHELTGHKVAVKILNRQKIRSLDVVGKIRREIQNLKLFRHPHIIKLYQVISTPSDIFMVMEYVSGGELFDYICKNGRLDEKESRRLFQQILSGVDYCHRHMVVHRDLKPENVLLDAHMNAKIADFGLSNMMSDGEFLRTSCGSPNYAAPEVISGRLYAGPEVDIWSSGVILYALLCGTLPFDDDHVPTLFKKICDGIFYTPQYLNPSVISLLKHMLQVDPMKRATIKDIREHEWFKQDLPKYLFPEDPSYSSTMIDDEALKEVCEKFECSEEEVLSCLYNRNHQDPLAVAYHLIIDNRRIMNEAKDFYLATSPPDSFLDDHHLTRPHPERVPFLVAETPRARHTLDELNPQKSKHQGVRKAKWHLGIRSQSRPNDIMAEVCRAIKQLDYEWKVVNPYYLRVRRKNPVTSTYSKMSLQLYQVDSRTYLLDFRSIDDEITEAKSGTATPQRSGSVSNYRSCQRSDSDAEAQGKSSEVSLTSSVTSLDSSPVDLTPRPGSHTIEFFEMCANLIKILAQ
T4 sequence (Q9Y478 whole entry): as the sequence (Q9Y478 whole entry) above
T4 sequence (P54619 whole entry): as the sequence (P54619 whole entry) above

For the compound `COc1cc(O)c2c(c1)CCc1cc(O)c(O)cc1-2` [Compound 2, 7-Methoxy-9,10-dihydrophenanthrene-2,3,5-triol], the “activation of bacterially-expressed AMPKα2β1γ1 complexes” value on AMPKα2β1γ1 (211) is given as “activate”. The “phosphorylation of the AMPK substrate ACC (pACC HTRF)” value (“phosphorylation” below) in data set [1] is reported as “increase”.
For `Oc1ccc2c(c1)CCc1cccc(O)c1-2` [Compound 3, 9,10-Dihydrophenanthrene-2,5-diol] the same measures were “activate” and “increase”.
On to `CC[C@H]1/C=C/C=C/C[C@@H](C)[C@H](O)[C@@](C)(O)C(=O)[C@@H](C)[C@H](O)[C@@H](C)C(=O)[C@@H](C)[C@H](O)[C@@H](C)/C=C/C(=O)O[C@@H]2[C@H](C)[C@H](CC1)O[C@]1(CC[C@H](C)[C@H](C[C@@H](C)O)O1)[C@H]2C` [Oligomycin], for which, in [2], the “cell viability (MTT, percentage of viable cells)” value was “robust decrease in cell viability”.
On to `Nc1ncnc2c1ncn2[C@@H]1O[C@H](COP(=O)(O)O)[C@@H](O)[C@H]1O` [AMP, reference compound], for which the “activation of AMPK α2β1γ1 γ1 R298G mutant complexes” value in data set [3] is “impaired”.
Take `Oc1ccc2c(c1)CCc1cc(O)cc(O)c1-2` [Compound 4, 9,10-Dihydrophenanthrene-2,4,7-triol]: the “activation of bacterially-expressed AMPKα2β1γ1 complexes” value on AMPKα2β1γ1 (211) is on record as “activate”. The “activation of β2-containing AMPK complexes (α2β2γ1)” value on AMPK α2β2γ1 (221) was “did not activate”. The “activation of bacterially-expressed AMPKα1β1γ1 complexes” value at AMPKα1β1γ1 (111) is “activates”. In addition, the “activation of α2β1γ1 ΔCBM mutant” value in [4] is given as “did not activate”. The “activation of AMPK complexes with the β1 S108A mutation” value in data set [5] is “did not activate”. The “phosphorylation” value in data set [1] is on record as “increase”. The “rate of lipogenesis (DPM per μg of protein)” value in the data set with primary hepatocytes was “dose-dependent decrease”. Further, the “fold increase in glucose uptake relative to control” value in data set [6] is around 2 fold.
Turning to `COc1cc(O)c2c(c1)CCc1ccc(O)cc1-2` [Compound 5, 7-Methoxy-9,10-dihydrophenanthrene-3,5-diol], on AMPKα2β1γ1 (211), the “activation of bacterially-expressed AMPKα2β1γ1 complexes” value is “activate”. Moreover, the “phosphorylation” value in data set [1] is on record as “increase”.
Take `N#CC(C#N)=NNc1ccc(OC(F)(F)F)cc1` [FCCP, carbonyl cyanide P-(trifluoromethoxy) phenylhydrazone]: the “cell viability (MTT, percentage of viable cells)” value in data set [2] is “robust decrease in cell viability”.
